In US10696693B2, “Fused imidazole derivatives as TGF-beta inhibitors” (Rigel Pharmaceuticals, Inc., priority 2014, dated 2020):
pIC50: −log10 of the molar value. Like-named read-outs stand apart in the source and are kept apart here.

Columns and labels:
GDF8 = experiment: AlphaScreen SureFire p-SMAD3 (Ser423/425) assay, GDF8-stimulated cells; type: cell-based
Method in brief: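 Lysate (5 μL) went into 384-well shallow plates with 5 μL of Reaction Buffer, Activation Buffer and AlphaScreen Acceptor bead mix. Plates were sealed, kept dark and shaken for 2 hours at room temperature. Donor beads in dilution buffer (2 μL) were added for another 1½ hours, and p-SMAD3 signal was read on a Synergy-4 or Enspire reader.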

TGF-β = experiment: AlphaScreen SureFire p-SMAD3 (Ser423/425) assay, TGF-β-stimulated cells; type: cell-based
Method in brief: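 The p-SMAD-3 (Ser423/425) SureFire assay measured phosphorylation of endogenous SMAD-3 in cell lysates. Cells were plated overnight in collagen-coated plates, exposed to three-fold serially diluted compounds for about 10 minutes, then stimulated with TGFβ. Lysates (5 μL) received acceptor bead mix for 2 hours, then donor beads for 1½ hours before AlphaScreen reading.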

[1] = Mus musculus, MPC-11, p-SMAD3 (Ser423/425) AlphaScreen in cell lysate, MPC11, GDF8 stimulation, read-out: GDF8: inhibition of GDF8 signaling, GDF pSMAD (MPC11)
[2] = Mus musculus, p-SMAD3 (Ser423/425) AlphaScreen in cell lysate, MPC-11, TGF-β stimulation, read-out: TGF-β: inhibition of TGF-β signaling, TGF-β pSMAD (MPC-11)
[3] = Mus musculus, MPC-11, read-out: GDF8: inhibition of GDF8 signaling, GDF pSMAD (MPC11), p-SMAD3 (Ser423/425) AlphaScreen in cell lysate, GDF8 stimulation
[4] = Mus musculus, MPC-11, read-out: TGF-β: inhibition of TGF-β signaling, TGF-β pSMAD (MPC-11), p-SMAD3 (Ser423/425) AlphaScreen in cell lysate, TGF-β stimulation

SMILES	pIC50 (GDF8; [1])	pIC50 (TGF-β; [2])	further results
Cc1ccc(F)cc1-c1nc2n(c1-c1ccc3[nH]ncc3c1)CCC2 [Compound 300, 5-(2-(5-fluoro-2-methylphenyl)-6,7-dihydro-5H-pyrrolo[1,2-a]imidazol-3-yl)-1H-indazole]	–	–	pIC50 (GDF8; [3]): < 6.00; pIC50 (TGF-β; [4]): < 6.00
Cc1cc(-c2nc3n(c2-c2ccc4ncnn4c2)CCC3)c(C)cc1F [Compound 64, 6-(2-(4-fluoro-2,5-dimethylphenyl)-6,7-dihydro-5H-pyrrolo[1,2-a]imidazol-3-yl)-[1,2,4]triazolo[1,5-a]pyridine]	6.00 to 7.00	< 6.00	–
Cc1c(F)ccc(-c2nc3n(c2-c2ccc4ncccc4c2)CCC3)c1C [Compound 331, 6-(2-(4-fluoro-2,3-dimethylphenyl)-6,7-dihydro-5H-pyrrolo[1,2-a]imidazol-3-yl)quinoline]	–	–	pIC50 (GDF8; [3]): < 6.00; pIC50 (TGF-β; [4]): < 6.00
Fc1cc(F)c(F)c(-c2nc3n(c2-c2cc4cnccc4s2)CCC3)c1 [Compound 98, 2-(2-(2,3,5-trifluorophenyl)-6,7-dihydro-5H-pyrrolo[1,2-a]imidazol-3-yl)thieno[3,2-c]pyridine]	6.00 to 7.00	6.00 to 7.00	–
Cc1ccc(-c2nc3occn3c2Br)c(F)c1 [Compound 153, 5-bromo-6-(2-fluoro-4-methylphenyl)imidazo[2,1-b]oxazole]	< 6.00	< 6.00	–
FC(F)(F)c1cccc(-c2nc3n(c2-c2ccc4nccn4c2)CCC3)c1 [Compound 4]	6.00 to 7.00	6.00 to 7.00	–
COc1cccc(-c2nc3n(c2-c2ccc4cn[nH]c4c2)CCC3)c1 [Compound 186, 6-(2-(3-methoxyphenyl)-6,7-dihydro-5H-pyrrolo[1,2-a]imidazol-3-yl)-1H-indazole]	–	–	pIC50 (GDF8; [3]): 7.00 to 7.30; pIC50 (TGF-β; [4]): 6.00 to 7.00
CC(C)c1nnc2ccc(-c3c(-c4cc(F)cc(F)c4F)nc4n3CCC4)cn12 [Compound 22, 3-isopropyl-6-(2-(2,3,5-trifluorophenyl)-6,7-dihydro-5H-pyrrolo[1,2-a]imidazol-3-yl)-[1,2,4]triazolo[4,3-a]pyridine]	< 6.00	< 6.00	–
Fc1cc(F)cc(-c2nc3n(c2-c2ccc4ncsc4c2)CCC3)c1 [Compound 232, 6-(2-(3,5-difluorophenyl)-6,7-dihydro-5H-pyrrolo[1,2-a]imidazol-3-yl)benzo[d]thiazole]	–	–	pIC50 (GDF8; [3]): 6.00 to 7.00; pIC50 (TGF-β; [4]): < 6.00
Clc1cccc(-c2nc3n(c2-c2ccc4cn[nH]c4c2)CCC3)c1 [Compound 190, 6-(2-(3-chlorophenyl)-6,7-dihydro-5H-pyrrolo[1,2-a]imidazol-3-yl)-1H-indazole]	–	–	pIC50 (GDF8; [3]): > 7.30; pIC50 (TGF-β; [4]): 7.00 to 7.30
CN(C)CCOc1cnc2ccc(-c3c(-c4cc(F)c(F)cc4F)nc4n3CCN4)cc2n1 [Compound 120, N,N-dimethyl-2-((7-(6-(2,4,5-trifluorophenyl)-2,3-dihydro-1H-imidazo[1,2-a]imidazol-5-yl)quinoxalin-2-yl)oxy)ethan-1-amine]	> 7.30	> 7.30	–
COc1c(C)cc(-c2nc3n(c2-c2ccc4ncnn4c2)CCC3)cc1C [Compound 30, 6-(2-(4-methoxy-3,5-dimethylphenyl)-6,7-dihydro-5H-pyrrolo[1,2-a]imidazol-3-yl)-[1,2,4]triazolo[1,5-a]pyridine]	< 6.00	< 6.00	–
Cc1cc(-c2nc3n(c2-c2ccc4nccn4c2)CCC3)c(F)cc1F [Compound 39, 6-(2-(2,4-difluoro-5-methylphenyl)-6,7-dihydro-5H-pyrrolo[1,2-a]imidazol-3-yl)imidazo[1,2-c]pyridine]	> 7.30	7.00 to 7.30	–
Fc1cccc(F)c1-c1nc2n(c1-c1ccc3nccn3c1)CCC2 [Compound 11]	6.00 to 7.00	< 6.00	–
Fc1ccc(-c2nc3n(c2-c2ccc4ncnn4c2)CCC3)c(F)c1F [Compound 15, 6-(2-(2,3,4-trifluorophenyl)-6,7-dihydro-5H-pyrrolo[1,2-a]imidazol-3-yl)-[1,2,4]triazolo[1,5-a]pyridine]	6.00 to 7.00	< 6.00	–
Cc1ccc(F)cc1-c1nc2n(c1-c1ccc3nccn3c1)CCC2 [Compound 59, 6-(2-(5-fluoro-2-methylphenyl)-6,7-dihydro-5H-pyrrolo[1,2-a]imidazol-3-yl)imidazo[1,2-a]pyridine]	< 6.00	< 6.00	–
Fc1ccc(-c2cn3ccoc3n2)cc1F [Compound 131, 6-(3,4-difluorophenyl)imidazo[2,1-b]oxazole]	< 6.00	< 6.00	–
Cc1cc(-c2nc3n(c2-c2ccc4nccnc4c2)CCC3)c(Cl)cc1F [Compound 318, 6-(2-(2-chloro-4-fluoro-5-methylphenyl)-6,7-dihydro-5H-pyrrolo[1,2-a]imidazol-3-yl)quinoxaline]	–	–	pIC50 (GDF8; read-out: GDF8: inhibition of GDF8 signaling, GDF pSMAD (MPC11), p-SMAD3 (Ser423/425) AlphaScreen in cell lysate, GDF8 stimulation): 7.00 to 7.30; pIC50 (TGF-β; read-out: TGF-β: inhibition of TGF-β signaling, TGF-β pSMAD (MPC-11), p-SMAD3 (Ser423/425) AlphaScreen in cell lysate, TGF-β stimulation): 6.00 to 7.00
Fc1cc(F)c(-c2nc3n(c2-c2ccc4ncnn4c2)CCC3)cc1Cl [Compound 94, 6-(2-(5-chloro-2,4-difluoro)-6,7-dihydro-5H-pyrrolo[1,2-a]imidazol-3-yl)-[1,2,4]triazolo[1,5-a]pyridine]	> 7.30	> 7.30	–
Fc1cc(F)c(-c2nc3occn3c2-c2ccc3nccn3c2)cc1F [Compound 148, 6-(2,4,5-trifluorophenyl)-5-(imidazo[1,2-a]pyridin-6-yl)imidazo[2,1-b]oxazole]	> 7.30	7.00 to 7.30	–
O=S(=O)(Nc1cccc(-c2nc3n(c2-c2ccc4[nH]ncc4c2)CCC3)c1)c1ccccc1F [Compound 320, N-(3-(3-(1H-indazol-5-yl)-6,7-dihydro-5H-pyrrolo[1,2-a]imidazol-2-yl)phenyl)-2-fluorobenzenesulfonamide]	–	–	pIC50 (GDF8; [3]): < 6.00; pIC50 (TGF-β; [4]): < 6.00
Cc1cc(-c2nc3n(c2-c2ccc4nccn4c2)CCC3)cc(C)c1Cl [Compound 25, 6-(2-(4-chloro-3,5-dimethylphenyl)-6,7-dihydro-5H-pyrrolo[1,2-a]imidazol-3-yl)imidazo[1,2-a]pyridine]	< 6.00	< 6.00	–

Now from value to compound, other results behind:

pIC50 (GDF8; [1])	pIC50 (TGF-β; [2])	SMILES	further results
> 7.30	7.00 to 7.30	Cc1cccc(-c2nc3n(c2-c2ccc4[nH]ncc4c2)CCC3)c1 [Compound 168, 5-(2-(m-tolyl)-6,7-dihydro-5H-pyrrolo[1,2-a]imidazol-3-yl)-1H-indazole]	–
6.00 to 7.00	< 6.00	Fc1ccc(-c2nc3n(c2-c2ccc4nccnc4c2)CCC3)c(F)c1F [Compound 224, 6-(2-(2,3,4-trifluorophenyl)-6,7-dihydro-5H-pyrrolo[1,2-a]imidazol-3-yl)quinoxaline]	–
7.00 to 7.30	6.00 to 7.00	Fc1ccc(-c2nc3n(c2-c2ccc4nccnc4c2)CCC3)cc1Cl [Compound 266, 6-(2-(3-chloro-4-fluoropheny)-6,7-dihydro-5H-pyrrolo[1,2-a]imidazol-3-yl)quinoxaline]	–
6.00 to 7.00	< 6.00	Cc1c(-c2nc3n(c2-c2ccc4nccnc4c2)CCC3)ccc(F)c1F [Compound 262, 6-(2-(3,4-difluoro-2-methylphenyl)-6,7-dihydro-5H-pyrrolo[1,2-a]imidazol-3-yl)quinoxaline]	–
6.00 to 7.00	< 6.00	Cc1c(F)ccc(-c2nc3n(c2-c2ccc4ncccc4c2)CCC3)c1F [Compound 283, 6-(2-(2,4-difluoro-3-methylphenyl)-6,7-dihydro-5H-pyrrolo[1,2-a]imidazol-3-yl)quinoline]	–
> 7.30	> 7.30	Nc1ncnc2ccc(-c3c(-c4cc(Cl)ccc4F)nc4n3CCC4)cc12 [Compound 346, 6-(2-(5-chloro-2-fluorophenyl)-6,7-dihydro-5H-pyrrolo[1,2-a]imidazol-3-yl)quinazolin-4-amine]	–
< 6.00	< 6.00	Fc1cccc(F)c1-c1nc2n(c1-c1ccc3nccnc3c1)CCC2 [Compound 215, 6-(2-(2,6-difluorophenyl)-6,7-dihydro-5H-pyrrolo[1,2-a]imidazol-3-yl)quinoxaline]	–
6.00 to 7.00	6.00 to 7.00	Cc1ccc(Cl)cc1-c1nc2n(c1-c1ccc3nccnc3c1)CCC2 [Compound 342, 6-(2-(5-chloro-2-methylpheny)-6,7-dihydro-5H-pyrrolo[1,2-a]imidazol-3-yl)quinoxaline]	–
> 7.30	> 7.30	Fc1ccc(Cl)cc1-c1nc2n(c1-c1ccc3ncccc3c1)CCC2 [Compound 338, 6-(2-(5-chloro-2-fluoropheny)-6,7-dihydro-5H-pyrrolo[1,2-a]imidazol-3-yl)quinoline]	–
6.00 to 7.00	< 6.00	Fc1ccc(F)c(-c2nc3n(c2-c2ccc4[nH]ncc4c2)CCC3)c1F [Compound 221, 5-(2-(2,3,6-trifluorophenyl)-6,7-dihydro-5H-pyrrolo[1,2-a]imidazol-3-yl)-1H-indazole]	–
< 6.00	< 6.00	Cc1cc(-c2nc3n(c2-c2ccc4ncccc4c2)CCC3)cc(C)c1F [Compound 279]	–
